From patent publication US20250281548A1, “ANTIMICROBIAL COMPOSITIONS COMPRISING EXTRACELLULAR VESICLES AND METHODS THEREOF” (Washington State University, priority 2024, published 2025)

Assays:
C. auris = assay: Cellular ROS assay in C. auris culture; type: cell-based, Candida auris; conditions: PAO1 D-EVs 0.25 μg/μl, E. coli D-EVs 0.15 μg/μl; ertapenem, tetracycline 2 mg/mL
Experimental: (§1) FIGS. 16A-16H summarize the EV bacterial protocol adapted for a fungal pathogen, C. auris. […] Fungal cell growth was monitored by measuring the OD600 of the cell culture. […] FIG. 16D illustrates the overall cellular levels of ROS radicals (including ·O2^− and ·OH) of C. auris in YPD broth culture in response to bacterial D-EV treatments. After 24 hr. of growth, C. auris cell culture (OD600=0.5) was mixed with a Cellular ROS Assay Kit (ab186027) and further incubated for 1 hr. Then, one dose of D-EVs extracted from either PAO1 (0.25 μg/μl) or E. coli (0.15 μg/μl) was added, followed by immediate monitoring of changes in fluorescence intensity (n=4). […] H2O2 (20%) was used as a positive control to stimulate C. auris to produce ·OH species.

[1] = tested on: P. aeruginosa PAO1 biofilms; assay: PAO1 colony biofilm growth, viable cell count (Log10 CFU/cm^2); type: cell-based; conditions: for Effect of ferric ions alone on 96-h PAO1 biofilm growth (in words): 10, 25, 50 μM Fe^3+
Experimental: P. aeruginosa (PAO1) from a −80° C. freezer was streaked on tryptic soy agar (TSA, BD Difco™ Dehydrated Culture Media, DF0369-17-6) and incubated overnight at 37° C. The P. aeruginosa was maintained on TSA plates at 4° C. and an inoculum was prepared by transferring a touch from this plate into 10 mL of tryptic soy broth (BD Bacto™) and incubated overnight. Then, a volume of 100 μL (OD600=0.1) was used to seed 47-mm sterilized filter membranes (Membrane Solutions MCE Gridded Membrane Filter, Mixed Cellulose Esters Membrane Filter, Pore Size: 0.45 μm) on TSA petri dishes. The plates were incubated at either 37° C. or 33° C. At desired time points (0, 1, 2, 4, 8, 12, 16, 24, 32, 48, 72, 85, 96, and 120 h), the biofilm was suspended in 0.9% NaCl to prepare serial dilutions for colony forming unit (CFU) counting. The viable cell concentration (CFU/cm^2) was calculated according to the literature. All experiments were done under aseptic conditions. TSA and TSB were autoclaved at 121° C. and […] for 50 min/L.
To quantify the effects of G-EVs and D-EVs on the growth behavior of P. aeruginosa PAO1 biofilms, biofilms grown for 2 hr. (lag phase), 8 hr. (exponential phase), and 24 hr. (stationary phase) were tested. Briefly, an inoculum was prepared by transferring a touch from the P. aeruginosa PAO1-TSA plates into 10 ml of TSB and incubating the plates at 37° C. overnight. A volume of 2.5 μL (OD600˜0.5) was used to seed sterile 13-mm polycarbonate membranes (WHA10417401, Sigma-Aldrich) on TSA plates and incubated at 37° C. Biofilms grown for 2 hr. were treated with one dose of G-EVs (0.028 μg/μL) or D-EVs (0.33 μg/μL) and incubated at 37° C. for 24 hours. Biofilms grown for 8 hr. were treated with one dose of G-EVs (0.037 μg/μL) or D-EVs (0.33 μg/μL) and incubated at 37° C. for 24 hours. Three doses of D-EVs (0.33 μg/μL) were applied (one dose every 24 h) to biofilms grown for 24 h, and the plates were incubated at 37° C. Then viable cells were counted and reported as CFU/cm^2.
To test if the suppression of PAO1 biofilm growth is caused by D-EV-induced excessive iron uptake by D-EV recipient cells leading to the activation of bacterial cell death, the research team examined whether D-EV-induced excessive iron uptake could improve the poor efficacy of the D EVs against 96-h biofilms (FIG. 9D). […]
The viability of treated P. aeruginosa PAO1 biofilms was investigated and compared to control. P. aeruginosa PAO1 biofilms at 2 hr., 8 hr., 24 hr., 48 hr., and 96 hr. were individually treated with a one-dose of P. aeruginosa PAO1 D-EVs±iron (50 μM) and the biofilm inhibition was quantified in the term of log10 CFU·cm^−2.

[2] = tested on: planktonic Candida auris cells; assay: Growth of planktonic C. auris cells (OD600); type: cell-based; conditions: one dose, PAO1 D-EVs 0.25 μg/μl, E. coli D-EVs 0.15 μg/μl, YPD broth
Experimental: as §1
Candida auris (B11220, ATCC) frozen at −80° C. was activated in yeast peptone dextrose (YPD) broth overnight at 37° C. Cells were be maintained at 4° C. on YPD-agar plates. The in vitro C. auris biofilms were be prepared by first activating the cultures at 4° C. in YPD broth at 37° C., then transferring a volume of 2.5 μL (OD600˜0.5) onto sterile 13-mm polycarbonate membrane (WHA10417401, Sigma-Aldrich) on YPD-agar plates (FIG. 17). The plates were then incubated at 37° C. for 0 h, 24 h, 48 h, and 72 h, respectively, for the following experiments.

Structure (SMILES): C[C@@H](O)[C@H]1C(=O)N2C(C(=O)O)=C(S[C@@H]3CN[C@H](C(=O)Nc4cccc(C(=O)O)c4)C3)[C@H](C)[C@H]12 [ertapenem]
- ROS production in C. auris (in words) (C. auris): No change in ROS production

Structure (SMILES): [Fe+3] [ferric ions]
- Growth of PAO1 biofilms at 2-96 hr. after one dose (in words) ([1]; 2, 8, 24, 48, 96 hr. biofilms, one dose D-EVs ± iron 50 μM, 24 hr. exposure): increased
- Effect of ferric ions alone on 96-h PAO1 biofilm growth (in words) ([1]; 96-h biofilms): marginally promoted biofilm growth
- Effect of ferric ions alone on 96-h PAO1 biofilm growth (in words) ([1]; 96-h biofilms, listed as Ferric ions): very minimal effect
- Growth of 96-h PAO1 biofilm with ferric ions alone ([1]; 96-h biofilms, ferric ions alone (10-50 μM), PBS control ~8.2): 8.7 log10

Structure (SMILES): OO [H2O2 (30%), H2O2]
- C. auris growth (in words) [2]: effectively inhibited fungal growth
